{"source": "paper PMC10685318", "about": "“Trans-cyclosulfamidate mannose-configured cyclitol allows isoform-dependent inhibition of GH47 α-D-mannosidases through a bump–hole strategy” (Chemical Science, 2023)", "target": "T1, MAN2C1 (Homo sapiens, UniProt Q9NTJ4)", "T1 construct": "expressed in transfected cells", "T1 sequence (Q9NTJ4 1-1040)": "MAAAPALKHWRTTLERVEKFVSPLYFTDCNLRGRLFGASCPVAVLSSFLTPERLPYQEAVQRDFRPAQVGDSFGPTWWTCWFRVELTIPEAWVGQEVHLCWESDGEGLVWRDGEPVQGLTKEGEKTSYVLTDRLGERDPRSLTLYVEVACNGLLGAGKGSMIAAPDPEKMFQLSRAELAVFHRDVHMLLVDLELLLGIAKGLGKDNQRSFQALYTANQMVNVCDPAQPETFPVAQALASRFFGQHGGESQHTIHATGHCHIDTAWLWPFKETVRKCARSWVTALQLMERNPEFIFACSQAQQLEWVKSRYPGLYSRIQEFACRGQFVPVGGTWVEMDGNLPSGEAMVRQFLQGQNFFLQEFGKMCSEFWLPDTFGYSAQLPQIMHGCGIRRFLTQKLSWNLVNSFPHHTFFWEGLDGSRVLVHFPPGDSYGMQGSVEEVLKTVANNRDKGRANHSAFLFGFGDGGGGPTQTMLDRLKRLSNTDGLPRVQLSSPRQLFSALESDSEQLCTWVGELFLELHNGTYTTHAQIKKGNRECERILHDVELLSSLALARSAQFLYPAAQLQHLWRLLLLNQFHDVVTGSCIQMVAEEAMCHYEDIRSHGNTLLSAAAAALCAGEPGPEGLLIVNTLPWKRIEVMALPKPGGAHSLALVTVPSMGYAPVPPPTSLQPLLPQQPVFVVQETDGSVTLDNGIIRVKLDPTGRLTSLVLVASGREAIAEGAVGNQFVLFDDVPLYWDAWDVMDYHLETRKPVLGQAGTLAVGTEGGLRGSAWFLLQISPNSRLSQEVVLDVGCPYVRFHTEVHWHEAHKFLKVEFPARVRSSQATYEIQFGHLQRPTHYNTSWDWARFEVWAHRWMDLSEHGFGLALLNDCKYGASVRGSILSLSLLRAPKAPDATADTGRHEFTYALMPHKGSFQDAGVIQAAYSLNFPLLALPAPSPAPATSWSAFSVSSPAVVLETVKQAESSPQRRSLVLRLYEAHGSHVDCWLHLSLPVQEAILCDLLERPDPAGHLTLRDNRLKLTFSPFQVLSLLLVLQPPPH", "test": "4-MU-α-man activity assay in overexpressed cell lysates", "type": "biochemical", "text": "Finally, selectivity versus a panel of related exo-mannosidases was investigated. We first tested inhibition against all five human GH38 retaining α-mannosidases in overexpressed cell lysates using 4-methylumbelliferyl-α-mannoside (4-MU-α-man): Golgi mannosidase II and IIx (MAN2A1 and MAN2A2), cytosolic MAN2C1 and lysosomal MAN2B1 and MAN2B2. This α-mannosidase family follows a different conformational itinerary than GH47: ^0S2 → B2,5 → ^1S5.[35] […] Of note, the presence of cobalt has been associated with conformational changes in the active site of some GH38 α-mannosidases, which might affect the binding interaction with inhibitors.[36] Nevertheless, additional research is required to explore which specific metal ion is present in the MAN2C1 active site in its in vivo state.\nTrans-Cyclosulfamidate Cyclitols Males et al.\n2.3 GH38 α-mannosidases and GH2 β-mannosidase inhibition studies\nAll chemicals were of analytical grade and purchased from Sigma-Aldrich unless stated otherwise.\nOptimal stability of cell homogenates and enzyme working stocks was ensured by preparation and temporary storage on ice. Cell homogenates were prepared and used on the same day. Protein concentrations were quantified using the Pierce BCA Protein Assay Kit (ThermoFisher). Protein samples were measured in clear flat-bottom polystyrene 96 well microplates (Greiner Bio-One) using a EMax Plus Microplate Reader (Molecular Devices). Activity measurements of human GH38 α-mannosidases and bacterial β-mannosidase BtMan2A were performed in black flat-bottom polystyrene 96 wells microplates (Greiner Bio-One) and total fluorescence was measured using a Perkin Elmer LS-55 fluorescence spectrometer at wavelengths λex = 366 and λem = 445 nm, with the signal optimized for medium gain readings. The fluorescence values of each enzyme sample were corrected for the background signal of a blank sample containing no enzyme. In the case of IC50 determinations, values were normalized against a control sample containing enzyme without added inhibitor. For a single experiment, three separate curves were fitted from a technical triplicate by setting the inhibitor concentration in µM against the normalized response using GraphPad Prism 8.4.2 software. The Prism functions ‘[inhibitor] versus normalized response’ and ‘[inhibitor] versus normalized response -- variable slope’ were compared for each curve using the Akaike’s Information Criterion method to select the preferred model. Reported IC50 values are mean ± standard deviation from a biological […]\nGeneral cell culture protocol\nHEK293T cells were grown to confluency at 37 °C under a 5% CO2 atmosphere in Dulbecco’s Modified Eagle’s Medium (DMEM) with a high glucose concentration (Capricorn Scientific, DMEM-HPXA) that was supplemented with 10% fetal calf serum, 0.1% (w/v) penicillin/streptomycin and 1% (v/v) Glutamax. Cells were passaged twice a week to new round polystyrene (PS) tissue culture dishes (Sarstedt) by detachment off the former culture plates by careful pipetting. To prepare cell pellets for activity measurements, plates were grown to confluency and harvested in phosphate buffered saline (PBS). After centrifugation at 1500 rpm for 5 min, the remaining PBS was aspirated and the cells were resuspended in fresh PBS. The concentration of the resulting suspension was then counted using a TC20 automated cell counter (BioRad). Aliquots were centrifuged at 2000 rpm for 5 min and the resulting cell pellets were stored at -80 °C until further use.\n4-MU activity assay protocol for human GH38 α-mannosidases\nHEK293T cells stably overexpressing human GH38 α-mannosidases MAN2A1, MAN2A2, MAN2B1, MAN2B2 and MAN2C1 were prepared as previously described[11] and were kindly donated by Dr. C. L.\nKuo. Homogenates were prepared by sonicating cell pellets (Sonics VibraCell, 5x1 s with 30 s interval at 20% amplitude) in 150 mM McIlvain buffer of pH 5.5 (MAN2A1, MAN2A2), pH 4.5 (MAN2B1, MAN2B2) or pH 6.7 (MAN2C1) containing either 2 mM ZnCl2 (MAN2A1, MAN2A2, MAN2B1, MAN2B2) […]", "note": "Read-outs that look alike come from different tables or passages of the source.", "data": [{"smiles": "O=S1(=O)N[C@@H]2[C@@H](O)[C@@H](O)[C@H](O)[C@@H](CO)[C@H]2O1", "note": "[compound 6, 1,6-trans-manno-cyclosulfamidate]", "values": [{"measurement": "IC50", "setting": "Co2+ (cobalt as the metal ion), read-out: IC50 (apparent)", "value": "3.5 ± 1.2", "unit": "µM"}, {"measurement": "IC50", "setting": "Zn2+ (buffer supplemented with 1 mM ZnCl2 instead of CoCl2)", "value": "no IC50 value could be determined"}, {"measurement": "IC50", "setting": "Zn2+ (buffer supplemented with 1 mM ZnCl2 instead of CoCl2), read-out: IC50", "value": "> 1000", "unit": "µM"}]}]}
